Measurements published in patent US20090143279A1 (priority 2007, published 2009).

The molecules below were run on cytochrome c. Conditions: Conc 20 μM; normalized score vs mock-treated (DMSO) wells.
Assay type: cell-based, mouse
For COc1cc2c(cc1OC)[C@@]13CCN4CC5=CCO[C@H]6CC(=O)N2[C@H]1[C@H]6[C@H]5C[C@H]43 [brucine], the “cyt c (composite Z-score)” value was 0.660.
With CC(=O)O[C@@H]1CC2C(C)(C)[C@H](O)C=C[C@]2(C)C2CC[C@]3(C)C(=CC(=O)O[C@H]3c3ccoc3)[C@@]21C (stereo partly drawn) [3-alpha-hydroxydeoxygedinin] the “cyt c (composite Z-score)” value was −0.321.
In the case of CC(C)(O)CC[C@@H](O)[C@](C)(O)[C@H]1CC[C@@]2(O)C3=CC(=O)[C@@H]4C[C@@H](O)[C@@H](O)C[C@]4(C)[C@H]3CC[C@]12C [crustecdysone], the “cyt c (composite Z-score)” value is reported as 0.468.
In the case of O=C(O)c1cc(O)c2c(c1)C(=O)c1cc(O)cc(O)c1C2=O [emodic acid], the “cyt c (composite Z-score)” value is reported as 0.505.
CC(=O)Oc1ccccc1C(=O)Oc1ccccc1C(=O)O [diplosalsalate] was tested, and the “cyt c (composite Z-score)” value was 0.787.

Same assay, conditions: composite Z-score vs DMSO; Conc 15.08 μM
COc1ccc(C[C@H]2NC[C@H](O)[C@H]2OC(C)=O)cc1 [Anisomycin, reference compound] gave a cyt c of −2.841.

The molecules below were run on OXPHOS gene expression. Conditions: Conc 20 μM; normalized score vs mock-treated (DMSO) wells.
Assay type: cell-based, mouse
For COc1cc2c(cc1OC)[C@@]13CCN4CC5=CCO[C@H]6CC(=O)N2[C@H]1[C@H]6[C@H]5C[C@H]43 [brucine], the “GE-HTS (composite Z-score)” value was −1.106.
In the case of CC(=O)O[C@@H]1CC2C(C)(C)[C@H](O)C=C[C@]2(C)C2CC[C@]3(C)C(=CC(=O)O[C@H]3c3ccoc3)[C@@]21C (stereo partly drawn) [3-alpha-hydroxydeoxygedinin], the “GE-HTS (composite Z-score)” value is reported as −1.171.
CC(C)(O)CC[C@@H](O)[C@](C)(O)[C@H]1CC[C@@]2(O)C3=CC(=O)[C@@H]4C[C@@H](O)[C@@H](O)C[C@]4(C)[C@H]3CC[C@]12C [crustecdysone] was tested, and the “GE-HTS (composite Z-score)” value was 0.354.
With O=C(O)c1cc(O)c2c(c1)C(=O)c1cc(O)cc(O)c1C2=O [emodic acid] the “GE-HTS (composite Z-score)” value was −1.336.
With CC(=O)Oc1ccccc1C(=O)Oc1ccccc1C(=O)O [diplosalsalate] the “GE-HTS (composite Z-score)” value was −1.001.

Same assay, conditions: composite Z-score vs DMSO; Conc 15.08 μM
With COc1ccc(C[C@H]2NC[C@H](O)[C@H]2OC(C)=O)cc1 [Anisomycin, reference compound] the GE-HTS was −0.353.

These molecules were tested on mtOXPHOS transcripts. Conditions: Conc 20 μM; normalized score vs mock-treated (DMSO) wells.
Assay type: cell-based, mouse
In the case of COc1cc2c(cc1OC)[C@@]13CCN4CC5=CCO[C@H]6CC(=O)N2[C@H]1[C@H]6[C@H]5C[C@H]43 [brucine], the “mitoOX (composite Z-score)” value is reported as −0.887.
For CC(=O)O[C@@H]1CC2C(C)(C)[C@H](O)C=C[C@]2(C)C2CC[C@]3(C)C(=CC(=O)O[C@H]3c3ccoc3)[C@@]21C (stereo partly drawn) [3-alpha-hydroxydeoxygedinin], the “mitoOX (composite Z-score)” value was −0.939.
With CC(C)(O)CC[C@@H](O)[C@](C)(O)[C@H]1CC[C@@]2(O)C3=CC(=O)[C@@H]4C[C@@H](O)[C@@H](O)C[C@]4(C)[C@H]3CC[C@]12C [crustecdysone] the “mitoOX (composite Z-score)” value was 0.062.
In the case of O=C(O)c1cc(O)c2c(c1)C(=O)c1cc(O)cc(O)c1C2=O [emodic acid], the “mitoOX (composite Z-score)” value is reported as −1.286.
With CC(=O)Oc1ccccc1C(=O)Oc1ccccc1C(=O)O [diplosalsalate] the “mitoOX (composite Z-score)” value was −0.766.

Same assay, conditions: Table 7; C2C12 myotubes, 48 h, composite Z-score
COc1ccc(C[C@H]2NC[C@H](O)[C@H]2OC(C)=O)cc1 [Anisomycin, reference compound] was tested, and the “mito-OXPHOS Z” value was −3.55.

Same assay, conditions: composite Z-score vs DMSO; Conc 15.08 μM
In the case of COc1ccc(C[C@H]2NC[C@H](O)[C@H]2OC(C)=O)cc1 [Anisomycin, reference compound], the mitoOX is reported as −3.545.

The molecules below were run on mitochondrial membrane potential. Conditions: Conc 20 μM; normalized score vs mock-treated (DMSO) wells.
Assay type: cell-based, mouse
COc1cc2c(cc1OC)[C@@]13CCN4CC5=CCO[C@H]6CC(=O)N2[C@H]1[C@H]6[C@H]5C[C@H]43 [brucine] was tested, and the “ΔΨm (composite Z-score)” value was 0.552.
With CC(=O)O[C@@H]1CC2C(C)(C)[C@H](O)C=C[C@]2(C)C2CC[C@]3(C)C(=CC(=O)O[C@H]3c3ccoc3)[C@@]21C (stereo partly drawn) [3-alpha-hydroxydeoxygedinin] the “ΔΨm (composite Z-score)” value was 1.760.
For CC(C)(O)CC[C@@H](O)[C@](C)(O)[C@H]1CC[C@@]2(O)C3=CC(=O)[C@@H]4C[C@@H](O)[C@@H](O)C[C@]4(C)[C@H]3CC[C@]12C [crustecdysone], the “ΔΨm (composite Z-score)” value was −0.721.
For O=C(O)c1cc(O)c2c(c1)C(=O)c1cc(O)cc(O)c1C2=O [emodic acid], the “ΔΨm (composite Z-score)” value was −0.966.
For CC(=O)Oc1ccccc1C(=O)Oc1ccccc1C(=O)O [diplosalsalate], the “ΔΨm (composite Z-score)” value was 0.008.

Same assay, conditions: composite Z-score vs DMSO; Conc 15.08 μM
Work on COc1ccc(C[C@H]2NC[C@H](O)[C@H]2OC(C)=O)cc1 [Anisomycin, reference compound] yielded a ΔΨm of −1.537.

The molecules below were run on cellular dehydrogenase activity. Conditions: Conc 20 μM; normalized score vs mock-treated (DMSO) wells.
In the case of COc1cc2c(cc1OC)[C@@]13CCN4CC5=CCO[C@H]6CC(=O)N2[C@H]1[C@H]6[C@H]5C[C@H]43 [brucine], the “MTT (composite Z-score)” value is reported as −1.270.
CC(=O)O[C@@H]1CC2C(C)(C)[C@H](O)C=C[C@]2(C)C2CC[C@]3(C)C(=CC(=O)O[C@H]3c3ccoc3)[C@@]21C (stereo partly drawn) [3-alpha-hydroxydeoxygedinin] was tested, and the “MTT (composite Z-score)” value was −0.319.
For CC(C)(O)CC[C@@H](O)[C@](C)(O)[C@H]1CC[C@@]2(O)C3=CC(=O)[C@@H]4C[C@@H](O)[C@@H](O)C[C@]4(C)[C@H]3CC[C@]12C [crustecdysone], the “MTT (composite Z-score)” value was −0.545.
O=C(O)c1cc(O)c2c(c1)C(=O)c1cc(O)cc(O)c1C2=O [emodic acid] was tested, and the “MTT (composite Z-score)” value was −0.976.
CC(=O)Oc1ccccc1C(=O)Oc1ccccc1C(=O)O [diplosalsalate] was tested, and the “MTT (composite Z-score)” value was −0.860.

Same assay, conditions: composite Z-score vs DMSO; Conc 15.08 μM
COc1ccc(C[C@H]2NC[C@H](O)[C@H]2OC(C)=O)cc1 [Anisomycin, reference compound] showed an MTT of −4.623.

What follows are molecules tested on nuOXPHOS transcripts. Conditions: Conc 20 μM; normalized score vs mock-treated (DMSO) wells.
Assay type: cell-based, mouse
With COc1cc2c(cc1OC)[C@@]13CCN4CC5=CCO[C@H]6CC(=O)N2[C@H]1[C@H]6[C@H]5C[C@H]43 [brucine] the “nucOX (composite Z-score)” value was −1.084.
For CC(=O)O[C@@H]1CC2C(C)(C)[C@H](O)C=C[C@]2(C)C2CC[C@]3(C)C(=CC(=O)O[C@H]3c3ccoc3)[C@@]21C (stereo partly drawn) [3-alpha-hydroxydeoxygedinin], the “nucOX (composite Z-score)” value was −1.202.
CC(C)(O)CC[C@@H](O)[C@](C)(O)[C@H]1CC[C@@]2(O)C3=CC(=O)[C@@H]4C[C@@H](O)[C@@H](O)C[C@]4(C)[C@H]3CC[C@]12C [crustecdysone] was tested, and the “nucOX (composite Z-score)” value was 0.487.
For O=C(O)c1cc(O)c2c(c1)C(=O)c1cc(O)cc(O)c1C2=O [emodic acid], the “nucOX (composite Z-score)” value was −1.210.
CC(=O)Oc1ccccc1C(=O)Oc1ccccc1C(=O)O [diplosalsalate] was tested, and the “nucOX (composite Z-score)” value was −0.994.

Same assay, conditions: Table 7; C2C12 myotubes, 48 h, composite Z-score
For COc1ccc(C[C@H]2NC[C@H](O)[C@H]2OC(C)=O)cc1 [Anisomycin, reference compound], the “nucOXPHOS Z” value was 1.26.

Same assay, conditions: composite Z-score vs DMSO; Conc 15.08 μM
Work on COc1ccc(C[C@H]2NC[C@H](O)[C@H]2OC(C)=O)cc1 [Anisomycin, reference compound] yielded a nucOX of 1.256.

Same assay, conditions: screen, relative to mtOXPHOS, in words
With COc1ccc(C[C@H]2NC[C@H](O)[C@H]2OC(C)=O)cc1 [Anisomycin, reference compound] the nuOXPHOS expression was “preferentially increase”.

Each molecule was assayed on C2C12 myotubes. Conditions: Conc 20 μM; normalized score vs mock-treated (DMSO) wells.
In the case of COc1cc2c(cc1OC)[C@@]13CCN4CC5=CCO[C@H]6CC(=O)N2[C@H]1[C@H]6[C@H]5C[C@H]43 [brucine], the “Viability (composite Z-score)” value is reported as 1.605.
For CC(=O)O[C@@H]1CC2C(C)(C)[C@H](O)C=C[C@]2(C)C2CC[C@]3(C)C(=CC(=O)O[C@H]3c3ccoc3)[C@@]21C (stereo partly drawn) [3-alpha-hydroxydeoxygedinin], the “Viability (composite Z-score)” value was 0.156.
In the case of CC(C)(O)CC[C@@H](O)[C@](C)(O)[C@H]1CC[C@@]2(O)C3=CC(=O)[C@@H]4C[C@@H](O)[C@@H](O)C[C@]4(C)[C@H]3CC[C@]12C [crustecdysone], the “Viability (composite Z-score)” value is reported as −0.458.
In the case of O=C(O)c1cc(O)c2c(c1)C(=O)c1cc(O)cc(O)c1C2=O [emodic acid], the “Viability (composite Z-score)” value is reported as 0.262.
CC(=O)Oc1ccccc1C(=O)Oc1ccccc1C(=O)O [diplosalsalate] was tested, and the “Viability (composite Z-score)” value was −0.204.

Same assay, conditions: composite Z-score vs DMSO; Conc 15.08 μM
COc1ccc(C[C@H]2NC[C@H](O)[C@H]2OC(C)=O)cc1 [Anisomycin, reference compound] gave a Viability of −2.835.

Each molecule was assayed on reactive oxygen species. Conditions: Conc 20 μM; normalized score vs mock-treated (DMSO) wells.
Assay type: cell-based, mouse
COc1cc2c(cc1OC)[C@@]13CCN4CC5=CCO[C@H]6CC(=O)N2[C@H]1[C@H]6[C@H]5C[C@H]43 [brucine] was tested, and the “ROS (composite Z-score)” value was 0.930.
For CC(=O)O[C@@H]1CC2C(C)(C)[C@H](O)C=C[C@]2(C)C2CC[C@]3(C)C(=CC(=O)O[C@H]3c3ccoc3)[C@@]21C (stereo partly drawn) [3-alpha-hydroxydeoxygedinin], the “ROS (composite Z-score)” value was 0.531.
With CC(C)(O)CC[C@@H](O)[C@](C)(O)[C@H]1CC[C@@]2(O)C3=CC(=O)[C@@H]4C[C@@H](O)[C@@H](O)C[C@]4(C)[C@H]3CC[C@]12C [crustecdysone] the “ROS (composite Z-score)” value was 0.657.
O=C(O)c1cc(O)c2c(c1)C(=O)c1cc(O)cc(O)c1C2=O [emodic acid] was tested, and the “ROS (composite Z-score)” value was 1.403.
For CC(=O)Oc1ccccc1C(=O)Oc1ccccc1C(=O)O [diplosalsalate], the “ROS (composite Z-score)” value was 0.306.

Same assay, conditions: composite Z-score vs DMSO; Conc 15.08 μM
COc1ccc(C[C@H]2NC[C@H](O)[C@H]2OC(C)=O)cc1 [Anisomycin, reference compound] gave an ROS of −2.958.
